Data taken from patent publication US6943166B1, “Compositions comprising phosphodiesterase inhabitors for the treatment of sexual disfunction” (Lilly ICOS LLC., priority 1999, dated 2005).

Experiments:
PDEl = settings: package insert; cited from earlier work
[1] = system: patients taking organic nitrates; settings: combination with organic nitrates; cited from earlier work
healthy male volunteers = assay: Example 5: drug interaction study of Compound (I) with short-acting nitrates (hemodynamic effects); format: in vivo, human
Method: On the sixth or seventh day, the subjects received sublingual nitroglycerin (0.4 mg) while supine on a tilt table. […] The subjects were tilted to 70° head-up every 5 minutes for a total of 30 minutes with measurement of blood pressure and heart rate. There were no discontinuations among the twenty-two healthy male subjects (ages 19 to 60 years old) that entered this study.

patients in need thereof = assay: Example 6: two randomized, double-blinded placebo controlled studies, daily and on demand dosing; format: in vivo, human
Method: In two randomized, double-blinded placebo controlled studies, Compound (I) was administered to patients in need thereof at a range of doses, in both daily dosing and for on demand therapy, for sexual encounters and intercourse in the home setting.
Enhanced erectile function was determined by the International Index of Erectile Function (IIEF) (Rosen et al., Urology, 49, pp. 822-830 (1997)), diaries of sexual attempts, and a global satisfaction question.

[2] = system: patients with male erectile dysfunction; assay: Example 7: placebo-controlled on demand study in male erectile dysfunction (IIEF, SEP, safety); format: in vivo, human; settings: for patients who rated ability to maintain an erection (IIEF Question 4) as almost always or always: at endpoint
Method: A third clinical study was a randomized, double-blind, placebo-controlled study of Compound (I) administered “on demand” to patients with male erectile dysfunction. Compound (I) was administered over a period of eight weeks in the treatment of male erectile dysfunction (ED). Erectile dysfunction (ED) is defined as the persistent inability to attain and/or maintain an erection adequate to permit satisfactory sexual performance.
The study population consisted of 212 men, at least 18 years of age, with mild to severe erectile dysfunction. […] Treatment with all nitrates, azole antifungals (e.g., ketoconazole or itraconazole), warfarin, erythromycin, or antiandrogens was not allowed at any time during the study. No other approved or experimental medications, treatments, or devices used to treat ED were allowed. Forty-one subjects were administered a placebo.
The two primary efficacy variables were the ability of a subject to penetrate their partner and their ability to maintain an erection during intercourse, as measured by the International Index of Erectile Function (IIEF). The IIEF Questionnaire contains fifteen questions, and is a brief, reliable measure of erectile function. See R. C. Rosen et al., Urology, 49, pp. 822-830 (1997)
Secondary efficacy variables were IIEF domain scores for erectile function, orgasmic function, sexual desire, intercourse satisfaction, and overall satisfaction; the patient's ability to achieve an erection, ability to insert their penis into their partner's vagina, completion of intercourse with ejaculation, satisfaction with the hardness of their erection, and overall satisfaction, all as measured by the Sexual Encounter Profile (SEP) diary; and a global assessment question asked at the end of the treatment period. […]
The safety aspect of the study included all enrolled subjects, and was assessed by evaluating all reported adverse events, and changes in clinical laboratory values, vital signs, physical examination results, and electrocardiogram results.

[3] = 10 mg daily for seven days, sublingual nitroglycerin 0.4 mg

For CCCc1nn(C)c2c(=O)[nH]c(-c3cc(S(=O)(=O)N4CCN(C)CC4)ccc3OCC)nc12 [sildenafil], the “more potent inhibitor of PDE5 than PDE1” value (PDEl) is listed as “greater than 80 fold” and the “blood pressure effect in patients taking organic nitrates” value [1] is listed as “clinically significant drop in blood pressure”.
With CN1CC(=O)N2[C@H](c3ccc4c(c3)OCO4)c3[nH]c4ccccc4c3C[C@@H]2C1=O [Compound (I), (6R,12aR)-2,3,6,7,12,12a-hexahydro-2-methyl-6-(3,4-methylenedioxyphenyl)-pyrazino[2′,1′:6,1]pyrido[3,4-b]indole-1,4-dione] the “changes in laboratory safety assessments or 12-lead ECGs” value (healthy male volunteers; 10 mg daily for seven days) was “no Compound (I) changes”, the “effect on mean maximal nitroglycerin-induced decrease in systolic blood pressure” value (healthy male volunteers; [3]) was “minimal, if any, effect” and the “effect on mean systolic blood pressure” value (healthy male volunteers; [3]) was “minimal, if any, effect”. For the same compound, the “impact on systolic blood pressure” value (healthy male volunteers; administered in conjunction with organic nitrates, human clinical studies) was “minimal impact”, the “efficacy for sexual encounters and intercourse” value (patients in need thereof; 10 mg dose) was “fully efficacious” and the side effects (patients in need thereof; 10 mg dose) was “minimal side effects”. The “efficacy for sexual encounters and intercourse” value (patients in need thereof; doses from 5 to 20 mg) was “efficacious”, the flushing (patients in need thereof; doses from 5 to 20 mg) was “less than 1%” and the “percentage of successful intercourse attempts including ability to attain and maintain an erection” value (patients in need thereof; on demand and daily dosing regimens) was “significantly improved”. The “patients who rated ability to maintain an erection (IIEF Question 4) as almost always or always” value ([2]; 10 mg on demand) was 39.0%, the “patients who rated ability to maintain an erection (IIEF Question 4) as almost always or always” value ([2]; 25 mg on demand) was 69.0% and the “incidence of treatment-emergent adverse events” value ([2]; 2 to 25 mg on demand) was “appeared related to dose”.
